Test results reported in the METLIN SMRT retention time set (Domingo-Almenara et al. 2019).

Test: gradient 5% acetonitrile 3 min, to 50% in 2 min, to 85% in 15 min, held 3 min, 100 µL/min
Details: column: Zorbax Extend-C18 2.1 x 50 mm; eluents: water / acetonitrile, 0.1% formic acid
In short: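 Mixtures of ~100 pure standards were chromatographed on a Zorbax Extend-C18 column (2.1 × 50 mm, 1.8 μm) at 100 μL/min using water and acetonitrile, each with 0.1% formic acid. Detection used a quadrupole time-of-flight mass spectrometer in positive and negative ionization mode, and data collection spanned 3 months. Retention time was obtained from adduct peaks picked computationally and each checked manually.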

Compound	RP-LC retention time
CC(C)CN1CCN(C(=O)C2CCCN(c3nnc4ccc(C(F)(F)F)cn34)C2)CC1 (stereo not drawn)	614 s
COc1cccc(N2CCN(c3ccnc(SCC(=O)Nc4ccc5c(c4)OCO5)n3)CC2)c1	728 s
Cc1cccc(Cn2c(=O)n(CCNC(=O)C3(c4ccccc4)CC3)c3ncccc32)c1	953 s
CC(=O)N(Cc1nn(C)c2c1CN(S(=O)(=O)c1cccc(F)c1)CC2)c1ccccc1	796 s
CCc1nc(-c2cc(S(=O)(=O)Nc3cc(C)ccc3C)c(C)s2)cs1	1160 s
O=C(NCc1ccc(F)cc1F)c1ccc2c(c1)nc1n2CCN(C2CCCCC2)C1=O	806 s
c1cncc(-c2nc3ccccc3s2)c1	873 s
CCCC(=O)NCCn1c(=O)n(Cc2cccc(C)c2)c2cccnc21	759 s
Cc1ccsc1C(=O)N1CCN(c2ccc(=O)n(-c3ccc(Cl)cc3)n2)CC1	878 s
O=C(c1cccc(OCC2CCCN(C(=O)C3CCCO3)C2)c1)N1CCCC1 (stereo not drawn)	718 s
Cc1cccc(OCc2nc(C)c(C(=O)Nc3nc(-c4ccc5c(c4)OCCCO5)cs3)s2)c1	1230 s
CC(C)(O)CC(=O)NCCn1ccc2ncnc(Nc3ccc(Oc4cccc(C(F)(F)F)c4)c(Cl)c3)c21	802 s
Cn1cc(-c2nc(C(=O)Nc3ccc(F)cc3)cs2)c2cccnc21	973 s
CCN1C(=O)C(C)(C(=O)Nc2ccc(OC)cc2)Oc2cccnc21 (stereo not drawn)	827 s
Cc1cccc(C)c1Nc1c(-c2ccccc2F)nc2cccc(C)n12	757 s
Clc1cccc(Nc2c(-c3ccccc3)nc3cnccn23)c1	921 s
CC(C)c1ccc(NC(=O)Cn2ncc3c(c2=O)N(C2CC2)C(=O)CS3)cc1	784 s
O=C(CN1CCCCC1c1nc(C2CC2)no1)Nc1ccccn1 (stereo not drawn)	734 s
Cc1noc(C)c1C1CCCN1C(=O)Nc1ccccc1C(F)(F)F (stereo not drawn)	879 s
Cc1noc(-c2cc(=O)n(CC(=O)Nc3cccc(C#N)c3)c3ccccc23)n1	831 s
COc1ccc(S(=O)(=O)N2CCCC(C(=O)N3CCC(Cc4ccccc4)CC3)C2)cc1Cl (stereo not drawn)	1170 s
Cc1nc2cc(NC(=O)c3cn(C)nn3)ccc2s1	629 s

Compound	RP-LC retention time
CCc1nnc(-c2nnc(N3CCCC3)c3ccccc23)o1	625 s
COCCN(Cc1ccco1)C(=O)Cn1nc(Cc2cccnc2)c2ccccc2c1=O	613 s
COc1ccc(-c2cc(N3CCC(NC(=O)c4ccc(F)cc4F)C3)n[nH]2)cc1 (stereo not drawn)	696 s
Cc1nc(-c2cn(C(C)C)c3ncccc23)sc1C(=O)NCc1cccnc1	657 s
Cc1ccc2[nH]cc(CCN3CC(C(=O)Nc4ccccc4)CC3=O)c2c1 (stereo not drawn)	801 s
COc1ccc(S(=O)(=O)Nc2ccc(-c3cn4ccc(C)nc4n3)cc2)cc1C	661 s
CC(C)n1cnc(S(=O)(=O)N2CCC(C(=O)N3CCc4ccccc4C3)CC2)c1	765 s
COc1ccc(-c2noc(C3CC(=O)N(c4cc(Cl)ccc4OC)C3)n2)c(OC)c1 (stereo not drawn)	1010 s
COCCN1C(=O)c2ccccc2C(C(=O)Nc2cc(C)ccn2)C12CCCCC2 (stereo not drawn)	745 s
CCN1CCN(C(=O)c2cn(-c3ccc(NC(=O)CC(C)C)cn3)cn2)CC1	589 s
CCOC(=O)c1[nH]c(C)c(CCC(=O)N2CCCC(C(=O)NCc3ccc(N(C)C)cc3)C2)c1C (stereo not drawn)	629 s
Cc1ncc2c(n1)CCN(C(=O)c1c(F)cccc1Cl)C2	663 s
CC(CCc1ccccc1)NC(=O)C1CCN(S(=O)(=O)c2ccc3c(c2)CCCC(=O)N3)CC1 (stereo not drawn)	809 s
COCCNc1nnc(-c2nc(-c3ccc(F)cc3)no2)c2ccccc12	801 s
COC(=O)c1cnc(N2CCN(c3ccccc3)CC2)c2ccccc12	1160 s
Cn1cc(C(CNC(=O)Nc2ccccc2)c2cccnc2)c2ccccc21 (stereo not drawn)	680 s
Cc1ccccc1CNS(=O)(=O)c1cn(C(C)C)c2ncccc12	960 s
COCCNC(=O)CN1c2ccccc2NC2=C(C(=O)CC(C)(C)C2)C1c1ccc(OC)cc1 (stereo not drawn)	743 s
CC(C)C(=O)N1CCc2c(c(C(=O)NCc3ccc4c(c3)OCO4)nn2C)C1	708 s
Cc1nc(N2CCN(c3ccccn3)CC2)nc2oc(-c3ccccc3)nc12	755 s
Cc1csc(-n2nc(C)c(CC(=O)Nc3cccc(Cl)c3)c2C)n1	1040 s
O=C(NCCCn1ccnc1)C(=O)NCCC1=CCCCC1	571 s

Compound	RP-LC retention time
CCCS(=O)(=O)N1CCCN(C2=NS(=O)(=O)C(c3cccc(Cl)c3)=C2C)CC1	891 s
COc1ccccc1CCC(=O)N1CCCn2nc(-c3cccs3)cc2C1	702 s
O=C1COc2ccc(S(=O)(=O)N3CCCC3C(=O)Nc3ccc(F)c(Cl)c3)cc2N1 (stereo not drawn)	845 s
CCN(CC)CCn1c(=O)c(Cc2ccc(OC)cc2)nc2ccccc21	720 s
COc1cccc(-c2noc(CN3C(=O)COc4ccccc43)n2)c1	981 s
N#CCCN(c1ccc(C=O)cc1)S(=O)(=O)c1ccccc1	770 s
COc1ccc(CC(=O)NCC(=O)Nc2nc3ccccc3[nH]2)cc1Cl	636 s
Cc1csc(-c2cc(S(=O)(=O)N3CCCC3)cn2CC(=O)N2CCCCC2)n1	875 s
O=C(NCCc1csc(-c2cccs2)n1)C1CCN(C(=O)Cc2cccc(F)c2)CC1	797 s
CSc1ccc(CNC(=O)CN2CCc3[nH]c4c(C)cc(F)cc4c(=O)c3C2)cc1	638 s
Cc1ccc(-n2cc(C(=O)Oc3cccnc3)c3ccccc3c2=O)cc1	978 s
Cc1ccccc1CNC(=O)C1CC(=O)N(c2ccc3c(c2)CCN3C(=O)C2CC2)C1 (stereo not drawn)	702 s
COc1ccccc1NC(=O)Nc1nc(CC(=O)NCc2ccco2)cs1	712 s
Cc1ccc(N2CCN(C(=O)C3CCCN(c4cnc5nccnc5c4)C3)CC2)cc1 (stereo not drawn)	754 s
CN1CCN(c2ncc3c(n2)CC(c2cc(F)cc(F)c2)CC3=O)CC1 (stereo not drawn)	660 s
Cc1ccc(NC(=O)NCCCn2c(C(F)(F)F)nc3cccnc32)cc1F	866 s
O=C(c1ccc2c(c1)CCCN2S(=O)(=O)c1ccccc1)N1CCCC1	852 s
Cc1ccc(CNC(=O)c2ccc(CN3CCN(C4CCCC4)C(=O)C3=O)cc2)cc1C	834 s
Cc1cc2c(c(=O)n(-c3ccccc3)c(=O)n2CC(=O)Nc2ccc(Cl)cc2)n1C	885 s
COCc1noc([C@@H]2CC(F)(F)CN2C(=O)c2cncn2C)n1	584 s
COc1ccc(-c2nnc(-c3ccc(C)c(S(=O)(=O)N4CCOCC4)c3)o2)cc1OC	844 s
CN(C)C[C@@H]1CN(S(C)(=O)=O)C[C@H]1NC(=O)c1cccn1C	573 s

Compound	RP-LC retention time
CCc1nc2cc(CNC(=O)Cc3ccccc3C)ccc2n1C	618 s
O=C(CCn1c(N2CCCC2)nc2ccsc2c1=O)NCc1ccccc1F	748 s
Cn1c(=O)sc2cc(S(=O)(=O)N3CCC(C(=O)Nc4cccc(F)c4)CC3)ccc21	885 s
CCCNC(=O)C1CCCN(c2ccc(SCC(=O)Nc3cccc(C)c3)nn2)C1 (stereo not drawn)	674 s
Fc1ccc(Cl)cc1CN1CC(COc2cccnc2)C2(CCOCC2)C1 (stereo not drawn)	566 s
CCc1c(C(=O)O)nnn1-c1ccccc1F	690 s
CCCCNC(=O)Cn1nc2c3cc(-c4ccc(C)c(C)c4)nn3ccn2c1=O	924 s
Cc1ccc(-n2c(=O)n(CC(=O)NCCN3CCOCC3)c3cccnc32)cc1	596 s
O=C(Nc1cnc(N2CCC(N3CCCCC3)CC2)c(C(=O)O)c1)c1ccc(Br)cc1	637 s
COCCCNc1c(C(=O)OC)c(=O)[nH]c2c(Cl)cccc12	692 s
CCOC(=O)c1c(C)[nH]c(CCC(=O)NCCc2c(C)noc2C)c1C	729 s
COc1ccc(OC)c(-c2cc(C(=O)NCc3nc(C)no3)[nH]n2)c1	662 s
Cc1ccccc1-c1noc(-c2nn(-c3cccc(F)c3)ccc2=O)n1	941 s
COc1ccc(Cl)cc1NC(=O)c1coc(NC(=O)C2CC2)n1	770 s
Cc1cc(-c2c(C)sc(C)c2S(=O)(=O)Nc2ccc(C)c(Cl)c2)n[nH]1	1100 s
CCOc1ccccc1NC(=O)C1CCN(S(=O)(=O)c2ccc3[nH]c(=O)ccc3c2)CC1	789 s
CC1=C(c2ccc(C)cc2)S(=O)(=O)N=C1N1CCC(NC(=O)Cc2ccsc2)CC1	867 s
Cc1cc(C)n2c(Nc3c(C)cccc3C)c(-c3ccccc3)nc2n1	743 s
CCCn1cc(C2=CCN(C(=O)Nc3ccc4c(c3)OCCO4)CC2)c2cccnc21	846 s
COc1nc2ccccc2nc1N1CCCC(C(=O)Nc2ccc(Cl)cc2)C1 (stereo not drawn)	1240 s
COCCNC(=O)C1CCN(c2ncnc3c2oc2ccccc23)CC1	617 s
CCOC(=O)c1sc(NC(=O)C2CCCN(S(C)(=O)=O)C2)nc1-c1ccccc1 (stereo not drawn)	863 s
